Experimental data taken from patent US20150239824A1, “BRANCHED OR MACROCYCLIC POLYAMINES AND USES THEREOF” (UNIVERSITE DE STRASBOURG, priority 2012, published 2015).
“Also recorded” adds a separate entry of the source.

Tests used:
NIH3T3 cells [1] = assay: Growth of lamellipodia / increase in projected cell area in NIH3T3 cells; type: cell-based, mouse; settings: 100 μM
Procedure: (§1) Polyamine compounds were dissolved in Milli-Q water to give a stock solution of 30 mM. For immunostaining and microscopy experiments, polyamine compounds were added to the cell medium at a final concentration of 100 μM, except for experiments which tested efficiency. For immunostaining experiments, NIH3T3 cells were incubated with Blebbistatin (30 μM), ML7 (10 μM), Y27632 (10 μM), Cytochalasin D (1 μM) (Sigma-Aldrich) for 30 min, LY294002 (50 μM) (Sigma-Aldrich) for 30 minutes. Latrunculin A (1.5 μM) (Sigma-Aldrich) was added for 5 min. After additional 20 min incubation with 100 μM polyamine, cells were fixed and stained.
(§2) Increase in cell area for given time point (n=5, 10 and 20 min) was calculated by (A1n-A0)/A0, where A0 and A1n are the areas before and after polyamine addition, respectively. Kymographs for the analysis of actin retrograde flow in the lamellipodia region were performed in ImageJ. Moving features were visualized as diagonal streaks with slope depending on the velocity of movement.
(§3) Cells were fixed in 3% PFA (Sigma-Aldrich) for 17 min and then permeabilized with 0.5% Triton solution (Sigma-Aldrich) for 3 min and rinsed twice with 1× PBS. For actin and focal contacts staining, cells were incubated with Alexa 488 phalloidin (1:200, Molecular Probes) and anti-paxillin monoclonal primary antibody (1:50, BD Biosciences) for 45 min at RT. Samples were finally mounted in 50% Glycerol/1× PBS on glass slides and protected from drying. For the intermediate filaments staining, cells were quenched in NaBH4/PBS solution for 10 min at RT. Cells were incubated first with anti-vimentin (1:500, Convance) for 1 h and then with goat anti-guinea pig Dylight 594 (1:1000, Jackson) for 45 min at RT. Microtubules were fixed using methanol at −20° C. for 10 min and stained with mouse monoclonal anti-alpha tubulin (1:50, Sigma-Aldrich) for 45 min at RT.
NIH3T3 mouse fibroblast and REF52 rat embryo fibroblasts (ATCC) were cultured in DMEM supplemented with 10% calf bovine serum (BCS, Sigma-Aldrich) or fetal bovine serum (FCS, Hyclone) and 1% Pen/Streptomycin (InVitrogen). […]

NIH3T3 cells [2] = assay: Immunofluorescence of microtubule and intermediate filament organization; type: cell-based, mouse; settings: 100 μM, 20 min
Procedure: as §3

NIH3T3 cells [3] = assay: Actin filament stability in Triton-treated cells; type: cell-based, mouse; settings: 100 μM, then 0.1% Triton
actin = molecular target: T1, actin (Oryctolagus cuniculus, UniProt P68135); assay: Actin assembly and bundling (light scattering, pyrenyl-actin fluorescence, electron microscopy); type: biochemical, rabbit; settings: for bundling / polymerization of actin filaments in vitro: light scattering, neomycin vs BPA: low ionic strength (G-buffer), up to at least 100 μM
T1 construct: Actin was purified from rabbit skeletal muscle, isolated in CaATP-G-actin form by size exclusion chromatography; from tissue; host or cells: rabbit skeletal muscle
Procedure: (§4) Actin assembly was monitored using as probes the increase in light scattering intensity (310 nm, 90° angle) and in the fluorescence of pyrenyl-actin (excitation 366 nm, emission 407 nm). Measurements were made at room temperature in a Xenius Safas spectrofluorimeter. CaATP-G-actin was converted into MgATP-G-actin by addition of 20 μM MgCl2 and 0.2 mM EGTA to a solution of 10 μM CaATP-G-actin in G buffer. Polymerization was triggered by addition of MgCl2 (1 mM final), EGTA (0.2 mM final) and KCl as indicated to MgATP-G-actin. The 1:1 CaATP-actin complex was obtained by removing free ATP by two consecutive treatments of CaATP-G-actin in G buffer with 10% suspension vol/vol of Dowex-I (BioRad) in G buffer without ATP.
(§5) Actin was purified from rabbit skeletal muscle, isolated in CaATP-G-actin form by size exclusion chromatography in G buffer (5 mM Tris-Cl—, pH 7.8, 0.1 mM CaCl2, 0.2 mM ATP, 1 mM DTT, 0.01% NaN3) and pyrenyl-labeled as described^1. Human gelsolin, mouse profilin, mouse Capping Protein and human ADF were bacterial recombinant proteins, and Arp2/3 was purified from bovine brain as described in Egile et al.^39. His6-tagged human N-WASP was expressed in sf9 cells using the baculovirus expression system and purified as described^39. Spectrin-actin seeds were isolated and purified from human blood cells^40.
Electron microscopy observation of actin assemblies in the presence of C7N6 MPA was performed using a Philips CM12 electron microscope at 80 kV. Samples containing actin (2 μM) in either in G or F form and C7N6 MPA were prepared and placed on glow-discharged carbon-coated grids.

[4] = molecular target: T2, actin filament barbed ends (Oryctolagus cuniculus, UniProt P68135); assay: Seeded barbed end growth assay (spectrin-actin seeds); type: biochemical, rabbit; settings: neomycin up to at least 100 μM
T2 construct: Actin was purified from rabbit skeletal muscle, isolated in CaATP-G-actin form by size exclusion chromatography; from tissue; host or cells: rabbit skeletal muscle
Procedure: as §4
Seeded barbed end growth assays were performed at 2.5 μM actin and 0.1 nM spectrin-actin seeds^38. Pointed end growth assays were performed similarly but using preformed gelsolin-actin complexes (2 nM final) as seeds. The initial rate of fluorescence increase was measured.
(§6) Actin was purified from rabbit skeletal muscle, isolated in CaATP-G-actin form by size exclusion chromatography in G buffer (5 mM Tris-Cl—, pH 7.8, 0.1 mM CaCl2, 0.2 mM ATP, 1 mM DTT, 0.01% NaN3) and pyrenyl-labeled as described^1. […]

F-actin = molecular target: T3, F-actin (Oryctolagus cuniculus, UniProt P68135); assay: Critical concentration plots, free barbed ends; type: biochemical, rabbit; settings: F-actin at steady state
T3 construct: Actin was purified from rabbit skeletal muscle, isolated in CaATP-G-actin form by size exclusion chromatography; from tissue; host or cells: rabbit skeletal muscle
Procedure: (§7) Critical concentration plots were performed by serial dilution of F-actin (10% pyrenyl-labeled) in F buffer containing the desired amounts of BPA/MPA. Pyrenyl-actin fluorescence was read after overnight incubation in the dark.
as §5

F-actin with ADF = molecular target: T4, F-actin with ADF (Oryctolagus cuniculus, UniProt P68135); assay: ADF-induced depolymerization of gelsolin-capped filaments and sedimentation assay; type: biochemical, rabbit
T4 construct: Actin was purified from rabbit skeletal muscle, isolated in CaATP-G-actin form by size exclusion chromatography; from tissue; host or cells: rabbit skeletal muscle (actin); bacteria (ADF, gelsolin)
Excerpt: Actin-based motile processes result from site-directed initiation of actin assembly by two major signal-responsive protein machineries. WASP family proteins use the Arp2/3 complex to branch filaments at the membrane and assemble a dendritic protrusive meshwork, while formins initiate barbed-end processive assembly of actin bundles. In both cases, force is produced by barbed-end growth fueled by regulated treadmilling. Treadmilling that drives the formation of dendritic actin arrays is enhanced by the synergistic effects of capping proteins, profilin and Actin Depolymerizing Factor (ADF/cofilin). ADF is known to destabilize actin filaments, promoting a large increase in pointed end depolymerization rate, the limiting step in filament treadmilling^17. FIG. 6 Ba-c confirms that gelsolin-capped filaments depolymerize up to a maximum of 30-fold faster in the presence of ADF, in agreement with previous data^17. […] In the presence of cyclic or branched polyamines, the rate of depolymerization was much less enhanced by ADF (about three-fold at 3 μM ADF, versus 30-fold in the control without polyamines).
as §6

[5] = molecular target: T5, N-WASP-coated beads, actin-based propulsion (Oryctolagus cuniculus, UniProt P68135); assay: Reconstituted motility assay of N-WASP-coated beads; type: biochemical; settings: 50 μM added a few minutes after initiation of comet tail formation
T5 construct: Actin was purified from rabbit skeletal muscle, isolated in CaATP-G-actin form by size exclusion chromatography; from tissue; host or cells: rabbit skeletal muscle (actin); sf9/baculovirus (N-WASP); bacteria (ADF, profilin, Capping Protein); bovine brain (Arp2/3)
Procedure: Reconstituted motility assays were performed using 2 μm diameter carboxylated polystyrene beads functionalized with N-WASP (170 nM, 2 hours, followed by 1% BSA neutralization for 20 min)^19. Beads were placed in a reconstituted motility mix containing 7.5 μM F-actin, 75 nM Capping Protein, 2 μM profilin, 7 μM ADF, 75 nM Arp2/3 complex in × buffer (10mM HEPES, 0.1M KCl, 1 mM MgCl2, 0.1 mM CaCl2, 1 mM ATP, 7 mM DTT, 1.5 mM DABCO at pH 7.8, 0.5% BSA and 0.2% methylcellulose). C8N6 BPA was then added at 50 μM. Observations were made using a phase contrast Olympus AX70 microscope controlled by MetaMorph 6.3r7 with CCD camera and 20× phase objective. Data analysis was performed to extract bead velocity with ImageJ software. Bead velocity was measured and averaged on 10-15 beads.
as §5

REF 52 cell = assay: Actin retrograde flow in lamellipodia; type: cell-based, rat; settings: lamellipodia region, kymographs, n=6 cells
Procedure: as §2
NIH3T3 mouse fibroblast and REF52 rat embryo fibroblasts (ATCC) were cultured in DMEM supplemented with 10% calf bovine serum (BCS, Sigma-Aldrich) or fetal bovine serum (FCS, Hyclone) and 1% Pen/Streptomycin (InVitrogen). Cells were grown at 37° C. and 5% CO2. For microscopy and immunostaining, cells were trypsinized (0.25% Trypsin-EDTA, InVitrogen), centrifuged and plated on glass coverslips. For live cell observation, Leibovitz's L-15 1× medium (InVitrogen) supplemented with 10% serum (FCS for REF52 and BCS for NIH3T3 cells) and 1% antibiotics was used.
For retrograde flow experiments, surfaces were coated with poly-lysine (Sigma-Aldrich) as described in Verkhovsky et al.^20.
Actin retrograde flow velocity experiments were performed in a Leica DM 2500 Microscope with a 100× oil objective at 37° C. Data acquisition was 1 image/5 sec.

[6] = molecular target: T6, actin with Capping Protein (Oryctolagus cuniculus, UniProt P68135); assay: Critical concentration and steady-state F-actin in the presence of Capping Protein; type: biochemical, rabbit; settings: 100 μM, 1 μM total actin
T6 construct: Actin was purified from rabbit skeletal muscle, isolated in CaATP-G-actin form by size exclusion chromatography; from tissue; host or cells: rabbit skeletal muscle (actin); bacteria (Capping Protein)
Procedure: as §7, §5

NIH3T3 cells [7] = assay: Cell entry of polyamines (Cy3 fluorescence, injection); type: cell-based, mouse; settings: 100 μM, 20 min
Procedure: as §1
Fluorescent images were taken in a Fluorescence Nikon Ti microscope (60× oil objective, NA 1.25) combined with a Photometrics CoolSNAP HQ2 camera and NIS acquisition software.

Compound	focal contacts (paxillin immunofluorescence) (NIH3T3 cells [1]; 20 min)	actin bundles within the lamellipodial array (NIH3T3 cells [1]; 20 min, actin staining)	growth of lamellipodia (NIH3T3 cells [1]; NIH3T3 cells, compound added to the cell culture medium)	organization of microtubules and intermediate filaments (NIH3T3 cells [2])	stabilization of actin filaments in Triton-treated cells (NIH3T3 cells [3])	assembly of actin at physiological ionic strength (actin; 1 mM MgCl2, 0.1 M KCl)	bundling / polymerization of actin filaments in vitro (actin)	bundling / polymerization of actin filaments in vitro (actin; listed as BPA)	inhibition of barbed-end growth [4]	critical concentration for filament assembly (F-actin)	critical concentration for filament assembly (F-actin; listed as BPA)	ADF-induced increase in rate of F-actin depolymerization (F-actin with ADF; gelsolin-capped filaments)	steady state of actin assembly in the presence of ADF (F-actin with ADF; sedimentation, F-actin 3 μM, 0.3 mM polyamine, one hour)	propulsion rate of N-WASP-coated beads [5]	actin retrograde flow velocity (REF 52 cell)	nucleation / short polymers in the presence of capping protein [6]	nucleation / short polymers in the presence of capping protein ([6]; listed as BPA)	entry into cells (NIH3T3 cells [7])	entry into cells (NIH3T3 cells [7]; listed as Cy3-labeled C8N6 BPA)
NCCCN(CCCN)CCCCCCCCN(CCCN)CCCN [C8N6 BPA]	exhibited the expected distribution and shapes of focal contacts	bundles of actin arranged in microspikes were observed	promote growth of lamellipodia	no effect on microtubules and intermediate filaments organization	stabilizes actin filaments in Triton-treated cells like Jasplakinolide	induced assembly of actin	induce ATP sensitive bundling of actin filaments	massive bundling is induced	inhibition	not significantly affected	strictly superimposable	greatly weakened	practically unaffected; also recorded: not affected	dramatic decrease in propulsion rate	clear reduction in the actin retrograde flow	enhance nucleation by capping proteins	stabilizes a greater number of short polymers in the presence of capping protein		
neomycin [reference compound]							does not induce bundling of actin; also recorded: does not promote polymerization of actin		does not inhibit barbed-end growth; also recorded: not inhibited										
CC[N+](CC)(CC)CCC[N+]1=C(/C=C/C=C2/N(CCCCCC(=O)NCCCN(CCCN)CCCCCCCCN(CCCN)CCCN)c3ccccc3C2(C)C)C(C)(C)c2ccccc21 [C8N6 BPA-Cy3]																		the polyamines enter the cells	entered the cell and displayed the same effect as the unlabeled C8N6 BPA; also recorded: the polyamines enter the cells
